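Results reflect a 48-hour exposure of cells in 96-well plates to compound at five concentrations. Here, GI50 denotes the concentration required for 50% inhibition of growth. TGI: total growth inhibition.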
Assays:
Test in all cases: inhibition of tumour cell growth, NCI panel, 48 h
[1] = system: NCI/ADR-RES ovarian
[2] = system: KM12 colon
[3] = system: HOP-62 NSCLC
[4] = system: OVCAR-3 ovarian
[5] = system: OVCAR-8 ovarian
[6] = system: A498 renal
[7] = system: SK-MEL-2 melanoma
[8] = system: RXF 393 renal
[9] = system: HT29 colon
[10] = system: M14 melanoma
[11] = system: NCI-H460 lung
[12] = system: U251 CNS
[13] = system: K-562 leukemia
[14] = system: SF-268 CNS
[15] = system: HOP-92 NSCLC
[16] = system: T-47D breast
[17] = system: A549 NSCLC
[18] = system: MDA-MB-435
[19] = system: IGROV1 ovarian
[20] = system: SW-620 colon
[21] = system: CCRF-CEM leukemia
[22] = system: SNB-75 CNS
[23] = system: HCT-15 colon
[24] = system: SK-OV-3 ovarian
[25] = system: UACC-257 melanoma
[26] = system: 786-0 renal
[27] = system: TK-10 renal
[28] = system: LOX IMVI melanoma
[29] = system: SK-MEL-28 melanoma

CN1CCN(c2nc(NCCCCNc3ccnc4cc(Cl)ccc34)c3ccccc3n2)CC1
GI50 [1]: 19 µM
TGI [1]: 56.1 µM
GI50 [2]: 8.25 µM
TGI [2]: 25.1 µM
GI50 [3]: 5.15 µM
TGI [3]: 20.2 µM
GI50 [4]: 5.36 µM
TGI [4]: 22.6 µM
GI50 [5]: 4.25 µM
TGI [5]: 20.1 µM
GI50 [6]: 12.1 µM
TGI [6]: 25 µM
GI50 [7]: 2.11 µM
TGI [7]: 4.48 µM
GI50 [8]: 1.74 µM
TGI [8]: 3.45 µM
GI50 [9]: 2 µM
TGI [9]: 5.49 µM
GI50 [10]: 1.83 µM
TGI [10]: 3.47 µM
GI50 [11]: 5.14 µM
TGI [11]: 18.3 µM
GI50 [12]: 3.27 µM
TGI [12]: 10.1 µM
GI50 [13]: 2.53 µM
TGI [13]: 11.8 µM
GI50 [14]: 10.7 µM
TGI [14]: 33.9 µM
GI50 [15]: 1.66 µM
TGI [15]: 4.12 µM
GI50 [16]: 2.23 µM
TGI [16]: 6.65 µM
GI50 [17]: 5.19 µM
TGI [17]: 20.5 µM
GI50 [18]: 1.97 µM
TGI [18]: 4.25 µM
GI50 [19]: 3.49 µM
TGI [19]: 19 µM
GI50 [20]: 4.42 µM
TGI [20]: 18.2 µM
GI50 [21]: 2.62 µM
TGI [21]: 93.9 µM
GI50 [22]: 2.16 µM
TGI [22]: 10 µM
GI50 [23]: 2.9 µM
TGI [23]: 14 µM
GI50 [24]: 18 µM
TGI [24]: 41.2 µM
GI50 [25]: 2.03 µM
TGI [25]: 3.9 µM
GI50 [26]: 1.65 µM
TGI [26]: 3.26 µM
GI50 [27]: 1.85 µM
TGI [27]: 4.69 µM
GI50 [28]: 1.89 µM
TGI [28]: 4.19 µM
GI50 [29]: 1.85 µM
